Assay results taken from patent US10494363B2, “Non-steroidal glucocorticoid receptor modulators for local drug delivery” (LEO PHARMA A/S, priority 2015, dated 2019).

What was measured:
[1] = target: T1, glucocorticoid receptor (GR), recombinant full-length receptor protein (Homo sapiens, UniProt P04150); test: Glucocorticoid receptor binding assay (fluorescence polarization kit); conditions: 4 nM receptor, 2.5 nM Fluormone GS1 tracer, 2h room temperature, read-out: GR binding ABS IC50
T1 construct: 4 nM recombinant, full-length receptor protein was incubated with increasing concentrations of GR ligand; purchased Life Technologies A-15897
T1 sequence (P04150 1-777): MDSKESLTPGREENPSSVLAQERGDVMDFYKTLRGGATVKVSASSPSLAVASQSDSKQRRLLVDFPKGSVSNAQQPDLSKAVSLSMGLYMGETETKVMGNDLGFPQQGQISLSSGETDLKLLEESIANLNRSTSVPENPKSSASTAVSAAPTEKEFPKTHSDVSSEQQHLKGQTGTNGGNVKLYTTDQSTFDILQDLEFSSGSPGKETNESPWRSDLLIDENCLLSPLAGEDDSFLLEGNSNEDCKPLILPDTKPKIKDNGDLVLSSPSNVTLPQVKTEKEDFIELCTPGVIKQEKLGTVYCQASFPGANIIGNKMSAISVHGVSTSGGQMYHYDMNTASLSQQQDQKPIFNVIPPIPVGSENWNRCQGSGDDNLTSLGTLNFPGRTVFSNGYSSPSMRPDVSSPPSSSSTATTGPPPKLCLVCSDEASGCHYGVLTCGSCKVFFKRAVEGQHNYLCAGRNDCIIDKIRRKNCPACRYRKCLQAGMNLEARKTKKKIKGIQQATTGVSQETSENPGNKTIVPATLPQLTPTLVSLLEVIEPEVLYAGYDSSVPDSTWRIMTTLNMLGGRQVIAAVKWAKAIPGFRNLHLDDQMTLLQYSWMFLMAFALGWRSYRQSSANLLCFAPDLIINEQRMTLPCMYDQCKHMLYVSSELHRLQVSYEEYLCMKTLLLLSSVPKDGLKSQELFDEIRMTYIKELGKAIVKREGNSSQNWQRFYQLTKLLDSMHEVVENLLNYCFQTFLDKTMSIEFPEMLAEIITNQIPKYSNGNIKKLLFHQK
Description: Test compounds were diluted in DMSO over seven orders of magnitude, further diluted in assay buffer and distributed into 384-well plates. The sensitivity limit of this assay was 2-4 nM.
Data were processed by sigmoidal curve fitting.
Absolute (Abs) IC50 and Emax were determined from the curve fits.

[2] = test system: TNF alpha release from human PBMCs; test: Inhibition of TNF alpha release from human PBMCs; assay type: cell-based; conditions: PBMC, LPS 1 μg/ml, 18 hours, AlphaLISA
Description: PBMC were isolated from fresh buffy coats by density centrifugation using lymphoprep (Medinor AB, cat no 1019818) tubes. Isolated PBMCs were washed in assay medium (RPMI1640 with 25 mM HEPES, 1% pen/strep, 200 mM L glutamine and 10% Foetal calf serum). Surplus PBMCs were frozen in medium containing extra 10% foetal calf serum and 5% DMSO. On the assay day, fresh cells or cryopreserved cells after thawing were washed in serum free medium (RPMI1640 with 25 mM HEPES, 1% pen/strep, 200 mM L glutamine and 0.5% human serum albumin) and counted, in order to determine the fraction of living cells (generally >95%).
Test compounds were diluted in DMSO over seven orders of magnitude, further diluted in serum-free medium and distributed into wells of 384 well tissue culture plates. LPS was added to a final concentration of 1 μg/ml to the cells. Immediately thereafter titrated test compounds were added and incubated for 18 hours at 37° C.
The level of TNF-a in the culture supernatant was quantitated by AlphaLISA (Perkin Elmer). 2-(3,5-dichloro-4-pyridinyl)-1-(7-methoxyspiro[1,3-benzodioxole-2,1′-cyclopentan]-4-yl)-ethanone (CAS 185406-34-2) at 100×IC50 was used to define the assay window.
Data were processed by sigmoidal curve fitting. EC50 and Emax were determined from the curve fits.

Structure (SMILES)	IC50 [1]	EC50 [2]
Cc1ccc([C@@H](Oc2ccc(C(=O)N[C@H]3CCCN(C(=O)O[C@H]4CCOC4=O)C3)nc2)[C@H](C)NC(=O)C(F)(F)F)cc1 [Compound 73, [(3S)-2-oxotetrahydrofuran-3-yl] (3S)-3-[[5-[(1R,2S)-1-(p-tolyl)-2-[(2,2,2-trifluoroacetyl)amino]propoxy]pyridine-2-carbonyl]amino]piperidine-1-carboxylate]	< 100 nM	
Cc1ccc([C@@H](Oc2ccc(C(=O)N[C@H]3CCCN(C(=O)O[C@@H]4CCOC4=O)C3)nc2)[C@H](C)NC(=O)C(F)(F)F)cc1 [Compound 74, [(3R)-2-oxotetrahydrofuran-3-yl] (3S)-3-[[5-[(1R,2S)-1-(p-tolyl)-2-[(2,2,2-trifluoroacetyl)amino]propoxy]pyridine-2-carbonyl]amino]piperidine-1-carboxylate]	< 100 nM	< 100 nM
C[C@H](NC(=O)C(F)(F)F)[C@H](Oc1ccc(C(=O)N[C@H]2CCCN(C(=O)[C@H]3COC(=O)C3)C2)nc1)c1ccc(-c2ccccc2)cc1 [Compound 68, N-[(3S)-1-[(3R)-5-oxotetrahydrofuran-3-carbonyl]-3-piperidyl]-5-[(1R,2S)-1-(4-phenylphenyl)-2-[(2,2,2-trifluoroacetyl)amino]propoxy]pyridine-2-carboxamide]	< 100 nM	< 100 nM
C[C@H](NC(=O)CO)[C@H](Oc1ccc(C(=O)N[C@H]2CCCN(C(=O)[C@H]3COC(=O)C3)C2)nc1)c1ccc(C2CC2)cc1 [Compound 21, 5-[(1R,2S)-1-(4-cyclopropylphenyl)-2-[(2-hydroxyacetyl)amino]propoxy]-N-[(3S)-1-[(3R)-5-oxotetrahydrofuran-3-carbonyl]-3-piperidyl]pyridine-2-carboxamide]	< 100 nM	< 100 nM
Cc1ccc([C@@H](Oc2ccc(C(=O)N[C@@H]3CCN(C(=O)[C@H]4COC(=O)C4)C3)nc2)[C@H](C)NC(=O)C(F)(F)F)cc1 [Compound 65, N-[(3R)-1-[(3R)-5-oxotetrahydrofuran-3-carbonyl]pyrrolidin-3-yl]-5-[(1R,2S)-1-(p-tolyl)-2-[(2,2,2-trifluoroacetyl)amino]propoxy]pyridine-2-carboxamide]	100 to 300 nM	< 100 nM
Cc1ccc([C@@H](Oc2ccc(C(=O)N[C@@H]3CCCN(C(=O)[C@H]4CCC(=O)O4)C3)nc2)[C@H](C)NC(=O)C(F)(F)F)cc1 [Compound 62, N-[(3R)-1-[(2R)-5-oxotetrahydrofuran-2-carbonyl]-3-piperidyl]-5-[(1R,2S)-1-(p-tolyl)-2-[(2,2,2-trifluoroacetyl)amino]propoxy]pyridine-2-carboxamide]		< 100 nM
Cc1ccc([C@@H](Oc2ccc(C(=O)N[C@@H]3CCCN(C(=O)[C@@H]4COC(=O)C4)C3)nc2)[C@H](C)NC(=O)C(F)(F)F)cc1 [Compound 60, N-[(3R)-1-[(3S)-5-oxotetrahydrofuran-3-carbonyl]-3-piperidyl]-5-[(1R,2S)-1-(p-tolyl)-2-[(2,2,2-trifluoroacetyl)amino]propoxy]pyridine-2-carboxamide]		< 100 nM
C[C@H](NC(=O)c1cncs1)[C@H](Oc1ccc(C(=O)O[C@H]2CCCN(C(=O)[C@H]3COC(=O)C3)C2)cc1)c1ccc(C2CC2)cc1 [Compound 27, [(3S)-1-[(3R)-5-oxotetrahydrofuran-3-carbonyl]-3-piperidyl] 4-[(1R,2S)-1-(4-cyclopropylphenyl)-2-(thiazole-5-carbonylamino)propoxy]benzoate]	< 100 nM	< 100 nM
Cc1ccc([C@@H](Oc2ccc(C(=O)O[C@H]3CCCN(C(=O)[C@H]4COC(=O)C4)C3)cc2)[C@H](C)NC(=O)C(F)(F)F)cc1 [Compound 70, [(3S)-1-[(3R)-5-oxotetrahydrofuran-3-carbonyl]-3-piperidyl] 4-[(1R,2S)-1-(p-tolyl)-2-[(2,2,2-trifluoroacetyl)amino]propoxy]benzoate]		< 100 nM
Cc1ccc([C@@H](Oc2ccc(C(=O)N[C@H]3CCCN(C(=O)N[C@@H]4COC(=O)C4)C3)nc2)[C@H](C)NC(=O)C(F)(F)F)cc1 [Compound 71, N-[(3S)-1-[[(3S)-5-oxotetrahydrofuran-3-yl]carbamoyl]-3-piperidyl]-5-[(1R,2S)-1-(p-tolyl)-2-[(2,2,2-trifluoroacetyl)amino]propoxy]pyridine-2-carboxamide]	< 100 nM	< 100 nM
Cc1ccc([C@H](Oc2ccc(C(=O)N[C@H]3CCCN(C(=O)[C@@H]4COC(=O)C4)C3)nc2)[C@H](C)NC(=O)C(F)(F)F)cc1 [Compound 80, N-[(3S)-1-[(3S)-5-oxotetrahydrofuran-3-carbonyl]-3-piperidyl]-5-[(1S,2S)-1-(p-tolyl)-2-[(2,2,2-trifluoroacetyl)amino]propoxy]pyridine-2-carboxamide]		< 100 nM
Cc1ccc([C@@H](Oc2ccc(C(=O)N[C@H]3CCCN(C(=O)O[C@@H]4COC(=O)C4)C3)nc2)[C@H](C)NC(=O)C(F)(F)F)cc1 [Compound 75, [(3S)-5-oxotetrahydrofuran-3-yl] (3S)-3-[[5-[(1R,2S)-1-(p-tolyl)-2-[(2,2,2-trifluoroacetyl)amino]propoxy]pyridine-2-carbonyl]amino]piperidine-1-carboxylate]	< 100 nM	100 to 300 nM
C[C@@H]1C[C@H]2[C@@H]3CCC4=CC(=O)C=C[C@]4(C)[C@@]3(F)[C@@H](O)C[C@]2(C)[C@@]1(O)C(=O)CO [Dexamethasone, reference compound]		< 100 nM
Cc1ccc([C@@H](Oc2ccc(C(=O)N[C@H]3CCCN(C(=O)[C@H]4COC(=O)C4)C3)cc2)[C@H](C)NC(=O)C(F)(F)F)cc1 [Compound 69, N-[(3S)-1-[(3R)-5-oxotetrahydrofuran-3-carbonyl]-3-piperidyl]-4-[(1R,2S)-1-(p-tolyl)-2-[(2,2,2-trifluoroacetyl)amino]propoxy]benzamide]	< 100 nM	< 100 nM
Cc1ccc([C@@H](Oc2ccc(C(=O)N[C@@H]3CCCN(C(=O)[C@@H]4CCC(=O)O4)C3)nc2)[C@H](C)NC(=O)C(F)(F)F)cc1 [Compound 61, N-[(3R)-1-[(2S)-5-oxotetrahydrofuran-2-carbonyl]-3-piperidyl]-5-[(1R,2S)-1-(p-tolyl)-2-[(2,2,2-trifluoroacetyl)amino]propoxy]pyridine-2-carboxamide]		100 to 300 nM
Cc1ccc([C@@H](Oc2ccc(C(=O)N[C@H]3CCCN(C(=O)[C@@H]4COC(=O)C4)C3)nc2)[C@H](C)NC(=O)C(F)(F)F)cc1 [Compound 63, N-[(3S)-1-[(3S)-5-oxotetrahydrofuran-3-carbonyl]-3-piperidyl]-5-[(1R,2S)-1-(p-tolyl)-2-[(2,2,2-trifluoroacetyl)amino]propoxy]pyridine-2-carboxamide]		< 100 nM
Cc1ccc([C@@H](Oc2ccc(C(=O)N[C@H]3CCCN(C(=O)[C@@H]4CCC(=O)O4)C3)nc2)[C@H](C)NC(=O)C(F)(F)F)cc1 [Compound 64, N-[(3S)-1-[(2S)-5-oxotetrahydrofuran-2-carbonyl]-3-piperidyl]-5-[(1R,2S)-1-(p-tolyl)-2-[(2,2,2-trifluoroacetyl)amino]propoxy]pyridine-2-carboxamide]		< 100 nM
Cc1ccc([C@H](Oc2ccc(C(=O)N[C@H]3CCCN(C(=O)[C@H]4COC(=O)C4)C3)nc2)[C@H](C)NC(=O)C(F)(F)F)cc1 [Compound 81, N-[(3S)-1-[(3R)-5-oxotetrahydrofuran-3-carbonyl]-3-piperidyl]-5-[(1S,2S)-1-(p-tolyl)-2-[(2,2,2-trifluoroacetyl)amino]propoxy]pyridine-2-carboxamide]		< 100 nM
